Results reported in patent publication US20170239249A1, “QUINAZOLINE-BASED KINASE INHIBITORS” (Bristol-Myers Squibb Company, priority 2014, published 2017).

biological target: AAK1 (full length human) (Homo sapiens, UniProt Q2M2I8); assay: HEK281 Cell-Based Assay (phospho-mu2 Western blot in HEK293F cells transfected with AAK1 and AP2M1); details: IC50 (nM), functional potency; inhibition of mu2 phosphorylation in HEK293F cells, 3 hours incubation, 5 concentrations
Sequence (Q2M2I8 1-863 isoform Q2M2I8-2): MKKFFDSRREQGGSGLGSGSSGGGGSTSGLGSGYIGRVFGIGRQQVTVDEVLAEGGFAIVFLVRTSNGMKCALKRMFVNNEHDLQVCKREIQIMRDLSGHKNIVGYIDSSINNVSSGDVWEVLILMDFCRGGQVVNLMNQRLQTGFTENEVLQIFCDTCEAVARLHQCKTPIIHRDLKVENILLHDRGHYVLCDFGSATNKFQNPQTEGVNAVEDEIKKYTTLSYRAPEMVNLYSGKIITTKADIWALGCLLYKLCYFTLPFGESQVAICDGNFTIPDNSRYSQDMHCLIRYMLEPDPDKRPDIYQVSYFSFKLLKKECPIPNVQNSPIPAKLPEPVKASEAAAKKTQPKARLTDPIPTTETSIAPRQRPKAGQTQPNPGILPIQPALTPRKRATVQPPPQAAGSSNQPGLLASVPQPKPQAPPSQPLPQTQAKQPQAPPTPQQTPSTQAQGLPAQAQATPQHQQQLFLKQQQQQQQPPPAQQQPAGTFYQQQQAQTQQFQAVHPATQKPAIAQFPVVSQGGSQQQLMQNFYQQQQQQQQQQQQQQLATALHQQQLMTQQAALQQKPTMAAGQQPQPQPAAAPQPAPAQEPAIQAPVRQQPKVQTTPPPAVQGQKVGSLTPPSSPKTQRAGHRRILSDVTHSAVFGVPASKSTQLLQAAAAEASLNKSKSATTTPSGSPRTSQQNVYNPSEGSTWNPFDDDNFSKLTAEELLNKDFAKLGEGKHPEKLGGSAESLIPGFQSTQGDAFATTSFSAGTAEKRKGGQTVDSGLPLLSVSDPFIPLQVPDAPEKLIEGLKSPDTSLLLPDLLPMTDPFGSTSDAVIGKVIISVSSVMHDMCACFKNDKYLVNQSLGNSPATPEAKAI

| IC50 [nM] | SMILES |
| --- | --- |
| 170 | Cc1nc(C(N)CC(C)C)nc2ccc(-c3cnco3)cc12 (stereo not drawn) [Example 2, 3-Methyl-1-(4-methyl-6-(oxazol-5-yl)quinazolin-2-yl)butan-1-amine] |
| 590 | COc1cc2nc(CCC(C)C)nc(C)c2cc1-c1cnco1 [Example 75, 5-(2-Isopentyl-7-methoxy-4-methylquinazolin-6-yl)oxazole] |
| 640 | CC(C)CCc1nc(C#N)c2cc(-c3cnco3)ccc2n1 [Example 31, 2-Isopentyl-6-(oxazol-5-yl)quinazoline-4-carbonitrile] |
| 354 | CC(C)CCc1nc(C(N)=O)c2cc(-c3ccncc3)ccc2n1 [Example 53, 2-Isopentyl-6-(pyridin-4-yl)quinazoline-4-carboxamide] |
| 1190 | CC(C)CCc1nc(NCCN(C)C)c2cc(-c3ccncc3)ccc2n1 [Example 48, N-(2-Isopentyl-6-(pyridin-4-yl)quinazolin-4-yl)-N^2,N^2-dimethylethane-1,2-diamine] |
| 13 | CCc1nc([C@H](N)C2CCCCC2)nc2ccc(-c3ccncc3)cc12 [Example 72, (R)-Cyclohexyl(4-ethyl-6-(pyridin-4-yl)quinazolin-2-yl)methanamine] |
| 13 | CCc1nc(C(N)CC(C)C)nc2cc(OC)c(-c3cnco3)cc12 (single isomer, unassigned; enantiomer 2) [Example 87, 1-(4-Ethyl-7-methoxy-6-(oxazol-5-yl)quinazolin-2-yl)-3-methylbutan-1-amine (Enantiomer 2)] |
| 130 | CCN(CC)c1nc(C(N)CC(C)C)nc2ccc(-c3cnco3)cc12 (stereo not drawn) [Example 18, 2-(1-Amino-3-methylbutyl)-N,N-diethyl-6-(oxazol-5-yl)quinazolin-4-amine] |
| 31 | COc1cnccc1-c1ccc2nc(C(N)CC(C)C)nc(N(C)C)c2c1 (stereo not drawn) [Example 26, 2-(1-Amino-3-methylbutyl)-6-(3-methoxypyridin-4-yl)-N,N-dimethylquinazolin-4-amine] |
| 97 | COc1nc(C(N)CC(C)C)nc2ccc(-c3ccncc3)cc12 (stereo not drawn) [Example 55, 1-(4-Methoxy-6-(pyridin-4-yl)quinazolin-2-yl)-3-methylbutan-1-amine] |
| 850 | CCNc1nc(C(N)CC(C)C)nc2ccc(-c3cnco3)cc12 (stereo not drawn) [Example 20, 2-(1-Amino-3-methylbutyl)-N-ethyl-6-(oxazol-5-yl)quinazolin-4-amine] |
| 32 | CCc1nc(C(N)CCC(F)(F)F)nc2ccc(-c3ccncc3)cc12 (stereo not drawn) [Example 69, 1-(4-Ethyl-6-(pyridin-4-yl)quinazolin-2-yl)-4,4,4-trifluorobutan-1-amine] |
| 1270 | CCc1nc(CCC(C)C)nc2cc(OC)c(-c3cnco3)cc12 [Example 52, 5-(4-Ethyl-2-isopentyl-7-methoxyquinazolin-6-yl)oxazole] |
| 420 | CC(C)CC(N)c1ncc2cc(-c3cnco3)ccc2n1 (stereo not drawn) [Example 1, 3-Methyl-1-(6-(oxazol-5-yl)quinazolin-2-yl)butan-1-amine] |
| 760 | CC(C)CC(N)c1nc(N2CCCC2)c2cc(-c3cnco3)ccc2n1 (stereo not drawn) [Example 19, 3-Methyl-1-(6-(oxazol-5-yl)-4-(pyrrolidin-1-yl)quinazolin-2-yl)butan-1-amine] |
| 360 | COc1c(-c2cnco2)ccc2nc(C(N)CC(C)C)ncc12 (stereo not drawn) [Example 11, 1-(5-Methoxy-6-(oxazol-5-yl)quinazolin-2-yl)-3-methylbutan-1-amine] |
| 3150 | COc1nc(CCC(C)C)nc2ccc(-c3cnco3)cc12 [Example 41, 5-(2-Isopentyl-4-methoxyquinazolin-6-yl)oxazole] |
| 1140 | CNc1nc(CCC(C)C)nc2ccc(-c3cnco3)cc12 [Example 39, 2-Isopentyl-N-methyl-6-(oxazol-5-yl)quinazolin-4-amine] |
| 1810 | CC(C)CCc1nc(NCCO)c2cc(-c3cnco3)ccc2n1 [Example 76, 2-((2-Isopentyl-6-(oxazol-5-yl)quinazolin-4-yl)amino)ethanol] |
| 410 | CCOc1nc(C(N)CC(C)C)nc2ccc(-c3cnco3)cc12 (stereo not drawn) [Example 15, 1-(4-Ethoxy-6-(oxazol-5-yl)quinazolin-2-yl)-3-methylbutan-1-amine] |
| 8 | CCc1nc(C(N)C2CCCCC2)nc2ccc(-c3ccncc3)cc12 (single isomer, unassigned; (-)) [Example 7, (−)-Cyclohexyl(4-ethyl-6-(pyridin-4-yl)quinazolin-2-yl)methanamine] |
| 6 | COc1cc2nc(C(N)CC(C)C)nc(C#N)c2cc1-c1cnco1 (stereo not drawn) [Example 32, 2-(1-Amino-3-methylbutyl)-7-methoxy-6-(oxazol-5-yl)quinazoline-4-carbonitrile] |
| 32 | CCc1nc([C@H](N)C2CCCC2)nc2ccc(-c3ccncc3)cc12 [Example 71, (R)-Cyclopentyl(4-ethyl-6-(pyridin-4-yl)quinazolin-2-yl)methanamine] |
| 24 | CCc1nc(C(N)CC(C)C)nc2cc(OC)c(-c3cnco3)cc12 (stereo not drawn) [Example 85, 1-(4-Ethyl-7-methoxy-6-(oxazol-5-yl)quinazolin-2-yl)-3-methylbutan-1-amine] |

| IC50 [nM] | SMILES |
| --- | --- |
| 400 | CCc1nc(CCC(C)C)nc2ccc(-c3ccncc3)cc12 [Example 45, 4-Ethyl-2-isopentyl-6-(pyridin-4-yl)quinazoline] |
| 20 | CCN(CC)c1nc(C(N)CC(C)C)nc2ccc(-c3ccncc3OC)cc12 (stereo not drawn) [Example 27, 2-(1-Amino-3-methylbutyl)-N,N-diethyl-6-(3-methoxypyridin-4-yl)quinazolin-4-amine] |
| 54 | COc1cnccc1-c1ccc2nc(CCC(C)C)nc(N(C)C)c2c1 [Example 29, 2-Isopentyl-6-(3-methoxypyridin-4-yl)-N,N-dimethylquinazolin-4-amine] |
| 17 | CC(C)CC(N)c1nc(C#N)c2cc(-c3cnco3)ccc2n1 (stereo not drawn) [Example 30, 2-(1-Amino-3-methylbutyl)-6-(oxazol-5-yl)quinazoline-4-carbonitrile] |
| 1860 | CCc1nc(CCC(C)C)nc2ccc(-c3cnco3)cc12 [Example 57, 5-(4-Ethyl-2-isopentylquinazolin-6-yl)oxazole] |
| 4620 | COC(=O)CCNc1nc(CCC(C)C)nc2ccc(-c3cnco3)cc12 [Example 82, Methyl 3-((2-isopentyl-6-(oxazol-5-yl)quinazolin-4-yl)amino)propanoate] |
| 87 | CCc1nc(C(N)CC(C)C)nc2cc(OC)c(-c3cnco3)cc12 (single isomer, unassigned; enantiomer 1) [Example 86, 1-(4-Ethyl-7-methoxy-6-(oxazol-5-yl)quinazolin-2-yl)-3-methylbutan-1-amine (Enantiomer 1)] |
| 1340 | CC(C)CCc1nc(C2CC2)c2cc(-c3ccncc3)ccc2n1 [Example 47, 4-Cyclopropyl-2-isopentyl-6-(pyridin-4-yl)quinazoline] |
| 4800 | CCc1nc(CCC2CCCC2)nc2ccc(-c3ccncc3)cc12 [Example 10, 2-(2-Cyclopentylethyl)-4-ethyl-6-(pyridin-4-yl)quinazoline] |
| 22 | CC(C)CCc1nc2ccc(-c3cn[nH]c3)cc2c(=O)[nH]1 [Example 51, 2-Isopentyl-6-(1H-pyrazol-4-yl)quinazolin-4(3H)-one] |
| 2590 | CCOc1cc2nc(CCC(C)C)nc(CC)c2cc1-c1cnco1 [Example 54, 5-(7-Ethoxy-4-ethyl-2-isopentylquinazolin-6-yl) oxazole] |
| 93 | CC(C)CC(N)c1nc2ccc(-c3ccncc3)cc2c(=O)[nH]1 (stereo not drawn) [Example 13, 2-(1-Amino-3-methylbutyl)-6-(pyridin-4-yl)quinazolin-4-ol] |
| 1300 | COCCNc1nc(C(N)CC(C)C)nc2ccc(-c3cnco3)cc12 (stereo not drawn) [Example 22, 2-(1-Amino-3-methylbutyl)-N-(2-methoxyethyl)-6-(oxazol-5-yl)quinazolin-4-amine] |
| 35 | CC(C)CCC1=Nc2ccc(-c3ccncc3)cc2C(CO)N1 (stereo not drawn) [Example 61, (2-Isopentyl-6-(pyridin-4-yl)-3,4-dihydroquinazolin-4-yl)methanol] |
| 75 | CCc1nc(C(N)CC(C)C)nc2c(OC)cc(-c3cnco3)cc12 (stereo not drawn) [Example 5, 1-(4-Ethyl-8-methoxy-6-(oxazol-5-yl)quinazolin-2-yl)-3-methylbutan-1-amine] |
| 2580 | CC(C)CCc1nc(NC2CC2)c2cc(-c3cnco3)ccc2n1 [Example 84, N-Cyclopropyl-2-isopentyl-6-(oxazol-5-yl)quinazolin-4-amine] |
| 360 | CC(C)CC(N)c1nc(N(C)C)c2cc(-c3cnco3)ccc2n1 (stereo not drawn) [Example 17, 2-(1-Amino-3-methylbut)-N,N-dimethyl-6-(oxazol-5-yl)quinazolin-4-amine] |
| 8610 | CC(C)CCc1nc(NCCN(C)C)c2cc(-c3cnco3)ccc2n1 [Example 81, N^1-(2-Isopentyl-6-(oxazol-5-yl)quinazolin-4-yl)-N^2,N^2-dimethylethane-1,2-diamine] |
| 5300 | CCCc1nc(C(N)CC(C)C)nc2ccc(-c3cnco3)cc12 (stereo not drawn) [Example 4, 3-Methyl-1-(6-(oxazol-5-yl)-4-propylquinazolin-2-yl)butan-1-amine] |
| 49 | CC(C)CCc1nc2ccc(-c3cnco3)cc2c(=O)[nH]1 [Example 42, 2-Isopentyl-6-(oxazol-5-yl)quinazolin-4(3H)-one] |
| 14 | CC(C)CC(N)c1nc(C#N)c2cc(-c3ccncc3)ccc2n1 (stereo not drawn) [Example 33, 2-(1-Amino-3-methylbutyl)-6-(pyridin-4-yl)quinazoline-4-carbonitrile] |
| 1390 | CC(C)CCc1nc(C(C)C)c2cc(-c3ccncc3)ccc2n1 [Example 46, 2-Isopentyl-4-isopropyl-6-(pyridin-4-yl)quinazoline] |
| 1500 | CCc1nc(C(C)CC(C)C)nc2ccc(-c3ccnc(NC)c3)cc12 (stereo not drawn) [Example 67, 4-(4-Ethyl-2-(4-methylpentan-2-yl)quinazolin-6-yl)-N-methylpyridin-2-amine] |

| SMILES | IC50 [nM] |
| --- | --- |
| CC(C)CC(N)c1nc(N2CC2)c2cc(-c3ccncc3)ccc2n1 (stereo not drawn) [Example 74, 1-(4-(Aziridin-1-yl)-6-(pyridin-4-yl)quinazolin-2-yl)-3-methylbutan-1-amine] | 263 |
